We go through 24 compounds from patent US5760050A, “Antipsychotic method utilizing certain tetrahydrochromeno[3,4-c]pyridin-5-ones” (Warner-Lambert Company, priority 1997, dated 1998).

For data set [1], the target named is T1, human D4 dopamine receptor (Homo sapiens, UniProt P21917).
T1 construct: expressed in transfected cells
T1 sequence (P21917 1-419): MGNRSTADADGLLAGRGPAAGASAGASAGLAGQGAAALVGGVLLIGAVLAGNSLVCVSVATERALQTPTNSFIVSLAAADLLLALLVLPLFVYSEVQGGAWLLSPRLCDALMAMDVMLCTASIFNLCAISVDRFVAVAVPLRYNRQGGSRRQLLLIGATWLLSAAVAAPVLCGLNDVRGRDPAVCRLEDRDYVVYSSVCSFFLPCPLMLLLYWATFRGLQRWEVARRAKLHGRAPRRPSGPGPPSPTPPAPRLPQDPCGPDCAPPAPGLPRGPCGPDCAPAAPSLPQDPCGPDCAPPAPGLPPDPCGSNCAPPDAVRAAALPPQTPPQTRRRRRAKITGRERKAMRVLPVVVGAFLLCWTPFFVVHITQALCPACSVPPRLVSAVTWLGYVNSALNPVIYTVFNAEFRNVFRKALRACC
The data set can be described thus: inhibition of [^3 H]spiperone binding to the human D4 dopamine receptor. As to the method:
(§1) Compounds of Formula I were tested for their ability to bind to dopamine receptors as measured by their inhibition of [^3 H]spiperone binding to the human D2 and D3 receptors in an assay described by MacKenzie R. G., VanLeeuwen D., Pugsley T. A., et al., "Characterization of the human dopamine D3 receptor expressed in transfected cell lines." Eur. J. Pharmacol.-Mol. Pharmacol., 1994;266:79-85; for the human D4 dopamine receptor in an assay described by Pugsley T. A., David M. D., Akunne H. C., et al., "CI-1007, a dopamine partial agonist and potential antipsychotic agent. I. Neurochemical Effects." J. Pharmacol. Exp. Ther., 1995;274:898-911; and for ability to block the action of an agonist in a [^3 H]thymidine incorporation assay described by Lajiness N. E., Chio C. L., Huff R. M., "D2 dopamine receptor stimulation of mitogenesis in transfected Chinese hamster ovary cells: relationship to dopamine stimulation of tyrosine phosphorylations." J. Pharmacol. Exp. Ther., 1993;267:1573-81. This test determines the agonist/antagonist character of a compound by measuring [^3 H]thymidine uptake in Chinese hamster ovary (CHO) pro-5 cells expressing the dopamine D4 receptor. Agonists, such as quinpirole, promote cell growth and subsequent [^3 H]thymidine incorporation, while antagonists block the action of agonists. […] The above articles are incorporated herein by reference for their assay methodology.

In the next data set the target is T2, human D3 receptor (Homo sapiens, UniProt P35462).
T2 construct: expressed in transfected cells
T2 sequence (P35462 whole entry): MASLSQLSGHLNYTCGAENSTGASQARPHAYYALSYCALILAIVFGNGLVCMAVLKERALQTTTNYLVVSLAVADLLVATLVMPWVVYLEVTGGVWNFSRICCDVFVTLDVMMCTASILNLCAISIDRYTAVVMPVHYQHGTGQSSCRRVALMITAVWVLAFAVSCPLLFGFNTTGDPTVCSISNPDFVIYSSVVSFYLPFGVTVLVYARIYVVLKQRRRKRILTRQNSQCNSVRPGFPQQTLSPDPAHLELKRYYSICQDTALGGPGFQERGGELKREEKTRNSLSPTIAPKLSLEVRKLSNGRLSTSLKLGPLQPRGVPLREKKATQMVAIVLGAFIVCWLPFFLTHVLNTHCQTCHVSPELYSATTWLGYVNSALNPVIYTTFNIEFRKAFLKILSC
The data set can be described thus: inhibition of [^3 H]spiperone binding to the human D3 receptor. The settings on record: read-out: Dopamine Receptor Binding (Ki, nM) D3. As to the method:
as §1

The target of a further data set is T3, human D2 receptor (Homo sapiens, UniProt P14416).
T3 construct: expressed in transfected cells
T3 sequence (P14416 whole entry): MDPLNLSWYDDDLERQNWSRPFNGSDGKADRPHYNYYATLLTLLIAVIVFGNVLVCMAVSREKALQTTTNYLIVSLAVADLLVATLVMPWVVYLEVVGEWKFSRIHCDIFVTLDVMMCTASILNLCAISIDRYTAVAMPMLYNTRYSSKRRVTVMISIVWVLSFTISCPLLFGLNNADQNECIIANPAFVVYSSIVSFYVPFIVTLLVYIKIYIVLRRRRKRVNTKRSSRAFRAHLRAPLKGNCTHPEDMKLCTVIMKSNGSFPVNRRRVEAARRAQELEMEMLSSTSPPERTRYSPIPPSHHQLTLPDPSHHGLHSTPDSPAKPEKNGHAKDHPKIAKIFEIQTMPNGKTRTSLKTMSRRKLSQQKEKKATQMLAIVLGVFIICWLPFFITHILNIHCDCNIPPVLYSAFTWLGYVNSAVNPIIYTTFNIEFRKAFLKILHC
The data set can be described thus: inhibition of [^3 H]spiperone binding to the human D2 receptor. The settings on record: read-out: Dopamine Receptor Binding (Ki, nM) D2. As to the method:
as §1

Another data set concerns schizophrenia. The settings on record: in vivo; cited from earlier work.
In a further data set the test system is dopamine D4 receptor. The settings on record: D4 vs D2; cited from earlier work.

Where a name gives a salt, the structure may show the parent alone.

For `Cc1ccc2c3c(c(=O)oc2c1)CN(Cc1ccccc1)CC3` [Example 17, 3-Benzyl-8-methyl-1,2,3,4-tetrahydro-chromeno[3,4-c]pyridin-5-one], the Ki – broadly, a dissociation constant, usually derived from enzyme kinetics or from competition with a known ligand – in data set [1] came to 3.59 nM; at human D3 receptor, 338 nM.

For `COc1ccc2c3c(c(=O)oc2c1)CN(CCc1ccccc1)CC3` [Example 22, 8-Methoxy-3-phenethyl-1,2,3,4-tetrahydro-chromeno[3,4-c]pyridin-5-one], the Ki in data set [1] is 6.87 nM; at human D3 receptor, 591 nM; on human D2 receptor it was over 5880 nM.

With `COc1ccc2c3c(c(=O)oc2c1)CN(Cc1ccc(Cl)c(Cl)c1)CC3` [Example 4, 3-(3,4-Dichloro-benzyl)-8-methoxy-1,2,3,4-tetrahydro-chromeno[3,4-c]pyridin-5-one], the Ki in data set [1] was 60.9 nM.

`COc1ccc2c3c(c(=O)oc2c1)CN(Cc1cccc(Cl)c1)CC3` [Example 15, 3-(3-Chloro-benzyl)-8-methoxy-1,2,3,4-tetrahydro-chromeno[3,4-c]pyridin-5-one]: the Ki in data set [1] was found to be 17.2 nM; at human D3 receptor it was 2630 nM.

As to `COc1cc2oc(=O)c3c(c2cc1OC)CCN(CCc1ccccc1)C3` [Example 23, 8,9-Dimethoxy-3-phenethyl-1,2,3,4-tetrahydro-chromeno[3,4-c]pyridin-5-one hydrochloride], the Ki in data set [1] amounted to 32.6 nM.

Regarding `COc1cc2oc(=O)c3c(c2cc1OC)CCN(Cc1ccc(Cl)cc1)C3` [Example 21, 3-(4-Chloro-benzyl)-8,9-dimethoxy-1,2,3,4-tetrahydro-chromeno[3,4-c]pyridin-5-one], the Ki is 8.46 nM in data set [1] and over 5880 nM on human D2 receptor.

For `COc1ccc2c3c(c(=O)oc2c1)CN(Cc1cccnc1)CC3` [Example 18, 8-Methoxy-3-pyridin-3-ylmethyl-1,2,3,4-tetrahydro-chromeno[3,4-c]pyridin-5-one], the Ki in data set [1] is 21.3 nM; at human D2 receptor it was 3980 nM.

In the case of `COc1ccc2c3c(c(=O)oc2c1)CN(Cc1ccc([N+](=O)[O-])cc1)CC3` [Example 5, 8-Methoxy-3-(4-nitro-benzyl)-1,2,3,4-tetrahydro-chromeno[3,4-c]pyridin-5-one], the Ki in data set [1] is 7.53 nM; on human D2 receptor, over 5880 nM.

Consider `Cc1cc2oc(=O)c3c(c2cc1O)CCN(Cc1ccccc1)C3` [Example 7, 3-Benzyl-9-hydroxy-8-methyl-1,2,3,4-tetrahydro-chromeno[3,4-c]pyridin-5-onehydrochloride], for which the Ki in data set [1] was 8.01 nM; on human D3 receptor, 295 nM; at human D2 receptor it was 1900 nM.

As for `COc1ccc2c3c(c(=O)oc2c1)CN(Cc1ccc(C)cc1)CC3` [Example 3, 8-Methoxy-3-(4-methyl-benzyl)-1,2,3,4-tetrahydro-chromeno[3,4-c]pyridin-5-one], the Ki was determined as 2.6 nM in data set [1] and 491 nM on human D3 receptor.

As for `COc1ccc2c3c(c(=O)oc2c1)CN(Cc1ccc(C(F)(F)F)cc1)CC3` [Example 13, 8-Methoxy-3-(4-trifluoromethyl-benzyl)-1,2,3,4-tetrahydro-chromeno[3,4-c]pyridin-5-one], the values for the Ki (in data set [1]; at human D3 receptor) were 8.18 nM and 966 nM, respectively.

Consider `COc1ccc(CN2CCc3c(c(=O)oc4cc(OC)ccc34)C2)cc1` [Example 14, 8-Methoxy-3-(4-methoxy-benzyl)-1,2,3,4-tetrahydro-chromeno[3,4-c]pyridin-5-one], for which the Ki in data set [1] was 84.3 nM.

With `Cc1c(O)cc2oc(=O)c3c(c2c1O)CCN(Cc1ccccc1)C3` [Example 8, 3-Benzyl-8,10-dihydroxy-9-methyl-1,2,3,4-tetrahydro-chromeno[3,4-c]pyridin-5-one hydrochloride], affinity in data set [1] was put at a Ki of 44.3 nM.

The compound `Cc1ccc2c3c(c(=O)oc2c1)CN(Cc1ccc(Cl)cc1)CC3` [Example 20, 3-(4-Chloro-benzyl)-8-methyl-1,2,3,4-tetrahydro-chromeno[3,4-c]pyridin-5-one] showed a Ki in data set [1] of 10.6 nM.

Regarding `COc1ccc2c3c(c(=O)oc2c1)CN(Cc1ccc(Cl)cc1)CC3` [Example 9, 3-(4-Chloro-benzyl)-8-methoxy-1,2,3,4-tetrahydro-chromeno[3,4-c]pyridin-5-one], the Ki in data set [1] is 7.3 nM; on human D3 receptor it was 11700 nM; at human D2 receptor, over 5880 nM.

For `CN1CCN(C2=Nc3cc(Cl)ccc3Nc3ccccc32)CC1` [clozapine], in the data set on schizophrenia, the “improvement of positive and negative symptoms of schizophrenia” value is “improves both the positive and negative symptoms of schizophrenia”; the “incidence of extrapyramidal side effects” value was “low incidence of extrapyramidal side effects”. Also, the “higher affinity for the dopamine D4 receptor than for the D2 receptor” value in the data set with dopamine D4 receptor was 10 fold.

For the compound `COc1ccc2c3c(c(=O)oc2c1)CN(Cc1ccccn1)CC3` [Example 19, 8-Methoxy-3-pyridin-2-ylmethyl-1,2,3,4-tetrahydro-chromeno[3,4-c]pyridin-5-one], in data set [1], the Ki was found to be 48 nM.

In turn, `COc1cc2oc(=O)c3c(c2cc1OC)CCN(Cc1ccccc1)C3` [Example 6, 3-Benzyl-8,9-dimethoxy-1,2,3,4-tetrahydro-chromeno[3,4-c]pyridin-5-one] displayed a Ki in data set [1] of 59 nM.

As for `COc1ccc2c3c(c(=O)oc2c1)CN(Cc1ccnc2ccccc12)CC3` [Example 11, 8-Methoxy-3-quinolin-4-ylmethyl-1,2,3,4-tetrahydro-chromeno[3,4-c]pyridin-5-one], the affinity in data set [1], expressed as Ki, was 34.3 nM.

`COc1ccc2c3c(c(=O)oc2c1)CN(Cc1ccncc1)CC3` [Example 10, 8-Methoxy-3-pyridin-4-ylmethyl-1,2,3,4-tetrahydro-chromeno[3,4-c]pyridin-5-one] gave a Ki in data set [1] of 73.5 nM.

Consider `COc1ccc2c3c(c(=O)oc2c1)CN(Cc1ccccc1)CC3` [Example 1, 3-Benzyl-8-methoxy-1,2,3,4-tetrahydro-chromeno[3,4-c]-pyridin-5-one], for which the results for the Ki (in data set [1]; on human D3 receptor) were 1.5 nM and 60 nM, respectively.

Compound `COc1ccc2c3c(c(=O)oc2c1OC)CN(Cc1ccccc1)CC3` [Example 24, 3-Benzyl-7,8-dimethoxy-1,2,3,4-tetrahydro-chromeno[3,4-c]pyridin-5-one] came in with a Ki in data set [1] of 16.2 nM.

Regarding `COc1ccc2c3c(c(=O)oc2c1)CN(Cc1cc(OC)c(OC)c(OC)c1)CC3` [Example 12, 8-Methoxy-3-(3,4,5-trimethoxy-benzyl)-1,2,3,4-tetrahydro-chromeno[3,4-c]pyridin-5-one], the values for the Ki (in data set [1]; on human D3 receptor; at human D2 receptor) were 21.3 nM, 3670 nM and 2670 nM, respectively.

Turning to `COc1ccc2c3c(c(=O)oc2c1)CN(Cc1ccccc1Cl)CC3` [Example 16, 3-(2-Chloro-benzyl)-8-methoxy-1,2,3,4-tetrahydro-chromeno[3,4-c]pyridin-5-one], the Ki was 33.9 nM in data set [1], 2610 nM at human D3 receptor and over 5880 nM at human D2 receptor.
